Tests used:
[1] = In vitro metabolism, liver microsomes; assay type: in vitro ADME, mouse
Experimental: Compounds were spiked into microsomal matrix prepared in 0.1 M pH 7.4 phosphate buffer containing magnesium chloride (final concentration of 3.3 mM), equilibrated for 5-10 min at 37°C. The reaction was initiated with the addition of freshly prepared solution of NADPH (final 1.3 mM). Control samples without co-factor were included for comparison. Aliquots of the reaction mixtures were taken periodically over 60 min and quenched with acetonitrile containing internal standards (metolazone and diazepam). Quenched samples were maintained on ice for approximately 20-30 min, centrifuged (for 5 min) and the supernatant was analyzed by LC-MS.
In vitro intrinsic clearance (CLint, μL/min/mg or μL/min/10^6 cells) values were calculated from the apparent first order degradation rate constant divided by the microsome concentration or the hepatocyte cell number (10^6 viable cells/mL). In vitro CLint values were then divided by the fraction unbound in the in vitro test system (to give CLint,u) and scaled to in vivo values (mL/min/kg) using published physiological scaling factors ([28]). Blood clearance in each species was then calculated using the well-stirred model of hepatic extraction (equation 2) where Q is the hepatic blood flow and fu,blood is calculated from fu,plasma/B:P: [2] PredictedCLblood=Q x fu,blood x CLint,u/Q+fu,blood x CLint,u
Blood clearance values were converted to plasma clearance by multiplying by the B:P.

[2] = In vitro cytotoxicity assay; assay type: cell-based; settings: human, THP1 human monocytic leukaemia cells
L. panamensis = assay: Leishmania intramacrophage in vitro assay; assay type: cell-based; settings: L. panamensis MHOM/PA/71/LS94
Experimental: (§1) A drug incubation period of 96 h was applied, and cells were stained with Giemsa for microscopic evaluation of cellular amastigote burdens. Percentage reduction compared to the burden in the infected non-treated control wells was used as a measure for drug activity.

L. tropica = assay: Leishmania intramacrophage in vitro assay; assay type: cell-based; settings: L. tropica MHOM/AF/2015/HTD7
Experimental: as §1

L. guyanensis = assay: Leishmania intramacrophage in vitro assay; assay type: cell-based; settings: L. guyanensis MHOM/PE/02/PER 054/0
Experimental: as §1

L. infantum = assay: Leishmania intramacrophage in vitro assay; assay type: cell-based
Experimental: as §1

L. major = assay: Leishmania intramacrophage in vitro assay; assay type: cell-based
Experimental: as §1

[3] = test system: remaining CYP isoforms other than CYP1A2 and CYP3A4/5 (CYP2B6, CYP2C8, CYP2C9, CYP2C19, CYP2D6); assay: Cytochrome P450 inhibition, human liver microsomes; assay type: in vitro ADME; settings: remaining isoforms (other than CYP1A2 and CYP3A4/5)
Experimental: Direct CYP inhibition studies were conducted using conditions described previously ([43]) following incubation of isoform-specific substrates with human liver microsomes. The formation of known metabolites mediated by a specific CYP isoform was monitored. CYP isoform-specific pathways (and positive control inhibitors) included CYP1A2: phenacetin O-deethylation (furafylline), CYP2B6: bupropion hydroxylation (PPP), CYP2C8: amodiaquine deethylation (quercetin) CYP2C9: tolbutamide methylhydroxylation (sulfaphenazole), CYP2C19: (S)-mephenytoin 4’-hydroxylation (ticlopidine), CYP2D6: dextromethorphan O-demethylation (quinidine), and CYP3A: midazolam 1’-hydroxylation and testosterone 6β-hydroxylation (ketoconazole). […] The organic solvent content was maintained at less than 1% (v/v). NADPH was added to initiate the reaction which was then quenched by the addition of acetonitrile containing internal standard at specified times. Concentrations of the isoform-specific metabolites were quantified by LC-MS (Waters Xevo TQD triple quadrupole MS coupled to a Waters Acquity UPLC system) relative to calibration standards prepared in pre-quenched microsomal matrix.

[4] = L. infantum MHOM/BR/2007/WC (L3015)
[5] = L. infantum MHOM/ES/2016/LLM-2346
[6] = L. infantum MHOM/FR/96/LEM3323 Cl4 MIL-R (miltefosine resistant)
[7] = L. infantum MHOM/FR/96/LEM3323 Cl4 PM-R (paromomycin resistant)
[8] = L. infantum MHOM/MA/67/ITMAP263

Cc1[nH]c2nc(N)nc(C)c2c1-c1ccc(C#N)c2c1OCO2 [DNDI-6174]
Microsome predicted in vivo CLplasma ([1]; Mouse): 12 mL/min/kg
In vitro Microsome CLint ([1]; Mouse, 2 independent experiments): 13 ± 0.38 µL/min/mg
microsomal CLint at 0.5 µM ([1]; mouse, liver microsomes, pH 7.4, Mouse, 2 independent experiments, read-out: In vitro Microsome CLint): 17 ± 0.59 µL/min/mg
CC50 [2]: > 50000 nM
EC50 (L. panamensis): 40 nM
EC90 (L. panamensis): 85 nM
EC50 (L. tropica): 360 nM
EC90 (L. tropica): 2180 nM
EC50 (L. guyanensis): 12 nM
EC90 (L. guyanensis): 39 nM
EC50 (L. infantum; [4]): 70 nM
EC90 (L. infantum; [4]): 180 nM
EC50 (L. infantum; [5]): 210 nM
EC90 (L. infantum; [5]): 1520 nM
EC50 (L. infantum; L. infantum MHOM/FR/96/LEM3323): 50 nM
EC90 (L. infantum; L. infantum MHOM/FR/96/LEM3323): 180 nM
EC50 (L. infantum; [6]): 70 nM
EC90 (L. infantum; [6]): 220 nM
EC50 (L. infantum; [7]): 80 nM
EC90 (L. infantum; [7]): 170 nM
EC50 (L. infantum; [8]): 160 nM
EC90 (L. infantum; [8]): 440 nM
EC50 (L. major; L. major MHOM/IL/81/Friedlin): 90 nM
EC90 (L. major; L. major MHOM/IL/81/Friedlin): 900 nM
EC50 (L. major; L. major MHOM/SA/85/JISH118): 740 nM
EC90 (L. major; L. major MHOM/SA/85/JISH118): 11400 nM
IC50 [3]: > 15000 nM

From publication PMC7615677 (Science translational medicine, 2023)
